row,melting point [°C],SMILES
1,96 to 97,"CCc1ccc(C(CC)CC)c2c1nc(Oc1c(C)cc(Cl)cc1Cl)n2C [Example 71, 2-(2,4-Dichloro-6-methylphenoxy)-4-ethyl-7-(1-ethylpropyl)-1-methyl-1H-benzimidazole]"
2,201 to 202,"CCC(CC(=O)O)c1ccc(Cl)c2nc(Oc3c(C)cc(Cl)cc3Cl)n(C)c12 (centres unmarked) [Example 99, 3-[4-Chloro-2-(2,4-dichloro-6-methylphenoxy)-1-methyl-1H-benzimidazol-7-yl]pentanoic acid]"
3,237 to 239,"CCC(CC)c1ccc(Cl)c2nc(Nc3c(C)cc(-n4cccn4)cc3OC)n(C)c12 [Example 57, 4-Chloro-7-(1-ethylpropyl)-N-[2-methoxy-6-methyl-4-(1H-pyrazol-1-yl)phenyl]-1-methyl-1H-benzimidazol-2-amine]"
4,168 to 169,"CCC(CC)c1ccc(OC)c2nc(Oc3ccc(OC(F)(F)F)cc3-n3ccnc3)n(C)c12 [Example 82, 7-(1-Ethylpropyl)-2-[2-(1H-imidazol-1-yl)-4-(trifluoromethoxy)phenoxy]-4-methoxy-1-methyl-1H-benzimidazole]"
5,162 to 163,"CCC(CC)c1ccc(Cl)c2nc(Oc3c(Cl)cc(Cl)cc3NC)n(C)c12 [Example 28, 3,5-Dichloro-2-{[4-chloro-7-(1-ethylpropyl)-1-methyl-1H-benzimidazol-2-yl]oxy}-N-methylaniline]"
6,192 to 193,"CCC(CC)c1ccc(Cl)c2nc(Nc3ccc(Cl)cc3Cl)n(CCO)c12 [Example 100, 2-[4-Chloro-2-[(2,4-dichlorophenyl)amino]-7-(1-ethylpropyl)-1H-benzimidazol-1-yl]ethanol]"
7,298 to 299,"CCC(CC)c1ccc(Cl)c2nc(Nc3c(C)cc(C(N)=O)cc3OC)n(C)c12 [Example 48, 4-{[4-Chloro-7-(1-ethylpropyl)-1-methyl-1H-benzimidazol-2-yl]amino}-3-methoxy-5-methylbenzamide]"
8,232 to 233,"CCC(CC)c1ccc(Cl)c2nc(Nc3c(C)cc(Cl)cc3Br)n(C)c12 [Example 49, N-(2-Bromo-4-chloro-6-methylphenyl)-4-chloro-7-(1-ethylpropyl)-1-methyl-1H-benzimidazol-2-amine]"
9,163 to 164,"CCC(CC)c1ccc(Cl)c2nc(Oc3c(C)cc(Br)cc3Cl)n(C)c12 [Example 33, 2-(4-Bromo-2-chloro-6-methylphenoxy)-4-chloro-7-(1-ethylpropyl)-1-methyl-1H-benzimidazole]"
10,121 to 123,"CCC(CC)c1ccc(OC)c2nc(Oc3ccc(Cl)cc3CN(C)C)n(C)c12 [Example 9, 1-(5-Chloro-2-{[7-(1-ethylpropyl)-4-methoxy-1-methyl-1H-benzimidazol-2-yl]oxy}phenyl)-N,N-dimethylmethanamine]"
11,47 to 49,"CCC(CC)c1ccc(OC)c2nc(Nc3ccc(Cl)cc3N(C)C)n(C)c12 [Example 21, 4-Chloro-N^1-[7-(1-ethylpropyl)-4-methoxy-1-methyl-1H-benzimidazol-2-yl]-N^2,N^2-dimethylbenzene-1,2-diamine]"
12,116 to 117,"CCOc1ccc(C(CC)CC)c2c1nc(Oc1c(C)cc(Cl)cc1Cl)n2C [Example 73, 2-(2,4-Dichloro-6-methylphenoxy)-4-ethoxy-7-(1-ethylpropyl)-1-methyl-1H-benzimidazole]"
13,99 to 100,"CCC(CC)c1ccc(Cl)c2nc(Oc3cccc4c3CN(C)C4)n(C)c12 [Example 54, 4-Chloro-7-(1-ethylpropyl)-1-methyl-2-[(2-methyl-2,3-dihydro-1H-isoindol-4-yl)oxy]-1H-benzimidazole]"
14,93 to 94,"CCOc1ccc(C(CC)CC)c2c1nc(Oc1ccc(Cl)cc1Br)n2C [Example 72, 2-(2-Bromo-4-chlorophenoxy)-4-ethoxy-7-(1-ethylpropyl)-1-methyl-1H-benzimidazole]"
